# Source: patent US20190322676A1, “CERAMIDE GALACTOSYLTRANSFERASE INHIBITORS FOR THE TREATMENT OF DISEASE” (BioMarin Pharmaceutical Inc., priority 2016, published 2019)
# Counter-ions that a name gives are not always drawn.
# Biological target: T1, human CGT (ceramide galactosyltransferase), CHO/CGT lysate (Homo sapiens, UniProt Q16880)
# T1 construct: Full-length human CGT cDNA was cloned into the BamH1/Xho1 site of pcDNA3.1 (+); expressed in transfected cells; host or cells: Chinese hamster ovary (CHO) cells; lysate prepared with M-PER
# T1 sequence (Q16880 21-541): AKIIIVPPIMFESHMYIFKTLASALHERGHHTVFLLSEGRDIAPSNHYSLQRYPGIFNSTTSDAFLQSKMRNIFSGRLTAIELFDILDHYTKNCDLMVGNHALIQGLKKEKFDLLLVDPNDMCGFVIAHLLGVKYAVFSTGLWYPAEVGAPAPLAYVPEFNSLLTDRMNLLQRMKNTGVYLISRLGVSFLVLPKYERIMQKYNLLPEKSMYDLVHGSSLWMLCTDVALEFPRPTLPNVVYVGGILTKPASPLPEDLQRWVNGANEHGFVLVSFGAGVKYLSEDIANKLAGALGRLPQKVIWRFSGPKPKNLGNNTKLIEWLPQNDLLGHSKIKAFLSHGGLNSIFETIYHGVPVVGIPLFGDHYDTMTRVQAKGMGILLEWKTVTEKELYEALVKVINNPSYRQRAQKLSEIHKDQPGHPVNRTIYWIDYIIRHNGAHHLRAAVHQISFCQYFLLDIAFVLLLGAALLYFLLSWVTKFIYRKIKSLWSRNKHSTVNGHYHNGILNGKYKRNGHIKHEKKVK
# Assay: CGT enzyme assay, RapidFire/MS/MS readout (Table 1 ranges with one asterisk *)
# Type: biochemical
# Details: RapidFire method (range with one asterisk *)
# Method in brief: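 IC50s come from variable-slope dose-response fits of internal-standard-normalized C6-NBD-dihydro-galactosylceramide, measured by RapidFire/MS/MS (ESI negative). Reactions: 1 h, 37 °C, human CGT-expressing CHO lysate (4 μg), 0.001–50 μM compound, 10 μM NBD-dihydro-ceramide, 17.5 μM UDP-galactose, 0.5% DMSO, pH 7.2; 0.01% Tween 80 added for ** values.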
row,Structure (SMILES),IC50
1,"CN([C@H](C(=O)N1CCC(N)CC1)C(F)(F)c1ccc(Oc2ccccc2)cc1)S(=O)(=O)c1ccc2cc(OC3CCCC3)ccc2c1 [Compound 62-1, (R)—N-(3-(4-aminopiperidin-1-yl)-1,1-difluoro-3-oxo-1-(4-phenoxyphenyl)propan-2-yl)-6-(cyclopentyloxy)-N-methylnaphthalene-2-sulfonamide trifluoroacetate]",1 to 10 µM
2,"CN([C@@H](C(=O)N1CCC(N)CC1)C(F)(F)c1ccc(Oc2ccccc2)cc1)S(=O)(=O)c1ccc2cc(OC3CCCC3)ccc2c1 [Compound 62-2, (S)—N-(3-(4-aminopiperidin-1-yl)-1,1-difluoro-3-oxo-1-(4-phenoxyphenyl)propan-2-yl)-6-(cyclopentyloxy)-N-methylnaphthalene-2-sulfonamide trifluoroacetate]",1 to 10 µM
3,"NC1CCN(C(=O)[C@@H](NS(=O)(=O)c2ccc(OCC3CCCCC3)cc2)C(F)(F)c2ccc(Oc3ccccc3)cc2)CC1 [Compound 63-1, (R)—N-(3-(4-aminopiperidin-1-yl)-1,1-difluoro-3-oxo-1-(4-phenoxyphenyl)propan-2-yl)-4-(cyclohexylmethoxy)benzenesulfonamide trifluoroacetate]",1 to 10 µM
4,"NC1CCN(C(=O)[C@H](NS(=O)(=O)c2ccc(OCC3CCCCC3)cc2)C(F)(F)c2ccc(Oc3ccccc3)cc2)CC1 [Compound 63-2, (S)—N-(3-(4-aminopiperidin-1-yl)-1,1-difluoro-3-oxo-1-(4-phenoxyphenyl)propan-2-yl)-4-(cyclohexylmethoxy)benzenesulfonamide trifluoroacetate]",10 to 30 µM
5,"CN([C@H](C(=O)N1CCC(N)CC1)C(F)(F)c1ccc(Oc2ccccc2)cc1)S(=O)(=O)c1ccc(OCC2CCCCC2)cc1 [Compound 64-1, (R)—N-(3-(4-aminopiperidin-1-yl)-1,1-difluoro-3-oxo-1-(4-phenoxyphenyl)propan-2-yl)-4-(cyclohexylmethoxy)-N-methylbenzenesulfonamide]",1 to 10 µM
6,"CN([C@@H](C(=O)N1CCC(N)CC1)C(F)(F)c1ccc(Oc2ccccc2)cc1)S(=O)(=O)c1ccc(OCC2CCCCC2)cc1 [Compound 64-2, (S)—N-(3-(4-aminopiperidin-1-yl)-1,1-difluoro-3-oxo-1-(4-phenoxyphenyl)propan-2-yl)-4-(cyclohexylmethoxy)-N-methylbenzenesulfonamide]",10 to 30 µM
7,"NC1CC2CCC(C1)N2C(=O)[C@@H](NS(=O)(=O)c1ccc2cc(OC3CCCC3)ccc2c1)C(F)(F)c1cccc(Br)c1 (stereo partly drawn) [Compound 65-1, N-((2R)-3-(3-amino-8-azabicyclo[3.2.1]octan-8-yl)-1-(3-bromophenyl)-1,1-difluoro-3-oxopropan-2-yl)-6-(cyclopentyloxy)naphthalene-2-sulfonamide]",1 to 10 µM
8,"NC1CC2CCC(C1)N2C(=O)[C@H](NS(=O)(=O)c1ccc2cc(OC3CCCC3)ccc2c1)C(F)(F)c1cccc(Br)c1 (stereo partly drawn) [Compound 65-2, N-((2S)-3-(3-amino-8-azabicyclo[3.2.1]octan-8-yl)-1-(3-bromophenyl)-1,1-difluoro-3-oxopropan-2-yl)-6-(cyclopentyloxy)naphthalene-2-sulfonamide]",10 to 30 µM
9,"NC1CC2CCC(C1)N2C(=O)[C@@H](NS(=O)(=O)c1ccc2cc(OC3CCCC3)ccc2c1)C(F)(F)c1cccc(-c2ccccc2)c1 (stereo partly drawn) [Compound 66-1, N-((2R)-1-([1,1′-biphenyl]-3-yl)-3-(3-amino-8-azabicyclo[3.2.1]octan-8-yl)-1,1-difluoro-3-oxopropan-2-yl)-6-(cyclopentyloxy)naphthalene-2-sulfonamide]",< 1 µM
10,"NC1CC2CCC(C1)N2C(=O)[C@H](NS(=O)(=O)c1ccc2cc(OC3CCCC3)ccc2c1)C(F)(F)c1cccc(-c2ccccc2)c1 (stereo partly drawn) [Compound 66-2, N-((2S)-1-([1,1′-biphenyl]-3-yl)-3-(3-amino-8-azabicyclo[3.2.1]octan-8-yl)-1,1-difluoro-3-oxopropan-2-yl)-6-(cyclopentyloxy)naphthalene-2-sulfonamide]",1 to 10 µM
11,"CN([C@H](C(=O)N1C2CCC1CC(N)C2)C(F)(F)c1cccc(Br)c1)S(=O)(=O)c1ccc2cc(OC3CCCC3)ccc2c1 (stereo partly drawn) [Compound 67-1, N-((2R)-3-(3-amino-8-azabicyclo[3.2.1]octan-8-yl)-1-(3-bromophenyl)-1,1-difluoro-3-oxopropan-2-yl)-6-(cyclopentyloxy)-N-methylnaphthalene-2-sulfonamide]",1 to 10 µM
12,"CN([C@@H](C(=O)N1C2CCC1CC(N)C2)C(F)(F)c1cccc(Br)c1)S(=O)(=O)c1ccc2cc(OC3CCCC3)ccc2c1 (stereo partly drawn) [Compound 67-2, N-((2S)-3-(3-amino-8-azabicyclo[3.2.1]octan-8-yl)-1-(3-bromophenyl)-1,1-difluoro-3-oxopropan-2-yl)-6-(cyclopentyloxy)-N-methylnaphthalene-2-sulfonamide]",30 to 100 µM
13,"CCN([C@H](C(=O)N1C2CCC1CC(N)C2)C(F)(F)c1ccc(Br)cc1)S(=O)(=O)c1ccc2cc(OC3CCCC3)ccc2c1 (stereo partly drawn) [Compound 68-1, N-((2R)-3-(3-amino-8-azabicyclo[3.2.1]octan-8-yl)-1-(4-bromophenyl)-1,1-difluoro-3-oxopropan-2-yl)-6-(cyclopentyloxy)-N-ethylnaphthalene-2-sulfonamide]",1 to 10 µM
14,"CCN([C@@H](C(=O)N1C2CCC1CC(N)C2)C(F)(F)c1ccc(Br)cc1)S(=O)(=O)c1ccc2cc(OC3CCCC3)ccc2c1 (stereo partly drawn) [Compound 68-2, N-((2S)-3-(3-amino-8-azabicyclo[3.2.1]octan-8-yl)-1-(4-bromophenyl)-1,1-difluoro-3-oxopropan-2-yl)-6-(cyclopentyloxy)-N-ethylnaphthalene-2-sulfonamide]",30 to 100 µM
15,"NC1CCN(C(=O)[C@@H](NS(=O)(=O)c2ccc3cc(OC4CCCC4)ccc3c2)C(F)(F)c2cccc(-c3ccccc3)c2)CC1 [Compound 69-1, (R)—N-(1-([1,1′-biphenyl]-3-yl)-3-(4-aminopiperidin-1-yl)-1,1-difluoro-3-oxopropan-2-yl)-6-(cyclopentyloxy)naphthalene-2-sulfonamide trifluoroacetate]",1 to 10 µM
16,"NC1CCN(C(=O)[C@H](NS(=O)(=O)c2ccc3cc(OC4CCCC4)ccc3c2)C(F)(F)c2cccc(-c3ccccc3)c2)CC1 [Compound 69-2, (S)—N-(1-([1,1′-biphenyl]-3-yl)-3-(4-aminopiperidin-1-yl)-1,1-difluoro-3-oxopropan-2-yl)-6-(cyclopentyloxy)naphthalene-2-sulfonamide trifluoroacetate]",30 to 100 µM
17,"NC1CC2CCC(C1)N2C(=O)[C@@H](NS(=O)(=O)c1ccc(OCC2CCCCC2)cc1)C(F)(F)c1cccc(-c2ccccc2)c1 (stereo partly drawn) [Compound 70-1, N-((2R)-1-([1,1′-biphenyl]-3-yl)-3-(3-amino-8-azabicyclo[3.2.1]octan-8-yl)-1,1-difluoro-3-oxopropan-2-yl)-4-(cyclohexylmethoxy)benzenesulfonamide trifluoroacetate]",1 to 10 µM
18,"NC1CC2CCC(C1)N2C(=O)[C@H](NS(=O)(=O)c1ccc(OCC2CCCCC2)cc1)C(F)(F)c1cccc(-c2ccccc2)c1 (stereo partly drawn) [Compound 70-2, N-((2S)-1-([1,1′-biphenyl]-3-yl)-3-(3-amino-8-azabicyclo[3.2.1]octan-8-yl)-1,1-difluoro-3-oxopropan-2-yl)-4-(cyclohexylmethoxy) benzenesulfonamide trifluoroacetate]",1 to 10 µM
19,"NC1CCN(C(=O)[C@@H](NS(=O)(=O)c2ccc3cc(OC4CCCC4)ccc3c2)C(F)(F)c2ccc(C(F)(F)F)cc2)CC1 [Compound 71-1, (R)—N-(3-(4-aminopiperidin-1-yl)-1,1-difluoro-3-oxo-1-(4-(trifluoromethyl)phenyl)propan-2-yl)-6-(cyclopentyloxy)naphthalene-2-sulfonamide]",< 1 µM
20,"NC1CCN(C(=O)[C@H](NS(=O)(=O)c2ccc3cc(OC4CCCC4)ccc3c2)C(F)(F)c2ccc(C(F)(F)F)cc2)CC1 [Compound 71-2, (S)—N-(3-(4-aminopiperidin-1-yl)-1,1-difluoro-3-oxo-1-(4-(trifluoromethyl)phenyl)propan-2-yl)-6-(cyclopentyloxy)naphthalene-2-sulfonamide]",1 to 10 µM
21,"NC1CCN(C(=O)[C@@H](NS(=O)(=O)c2ccc(OCC3CCCCC3)cc2)C(F)(F)c2ccc(C(F)(F)F)cc2)CC1 [Compound 72-1, (R)—N-(3-(4-aminopiperidin-1-yl)-1,1-difluoro-3-oxo-1-(4-(trifluoromethyl)phenyl)propan-2-yl)-4-(cyclohexylmethoxy)benzenesulfonamide]",1 to 10 µM
22,"NC1CCN(C(=O)[C@H](NS(=O)(=O)c2ccc(OCC3CCCCC3)cc2)C(F)(F)c2ccc(C(F)(F)F)cc2)CC1 [Compound 72-2, (S)—N-(3-(4-aminopiperidin-1-yl)-1,1-difluoro-3-oxo-1-(4-(trifluoromethyl)phenyl)propan-2-yl)-4-(cyclohexylmethoxy)benzenesulfonamide]",30 to 100 µM
